Measurements from patent publication US7947668B2, “Aminoalkyl sterol compounds having an anti-tumoral and neuroprotective activity” (Institut National de la Sante et de la Recherche Medicale, priority 2002, dated 2011).

How the values were obtained:
[1] = tested on: U-937 human myeloid leukemia cells; test: Dendritogenesis on U-937 human myeloid leukemia cells; type: cell-based; details: 1 nM
From the text: 2) On U-937 Human Myeloid Leukemia Cells

A549 cells [2] = test: Induction of vacuole production in the A549 tumoral cell line; type: cell-based, human
Experimental: A549 cells were treated with 100 nM of compound according to example 9, for 12 hours.
The A549 cells were obtained from the American Tissue Culture Collection (ATCC); they were inoculated at a density of 50 000 cells per well into 12-well plates and were cultured in RPMI medium supplemented with 5% fetal calf serum. To perform the treatment with the compound according to the invention, the cells are incubated with said compound (or with a control product) for 48 hours. The cells are then observed by phase-contrast microscopy every four hours to monitor the formation of vacuoles, and are then fixed with 0.4% paraformaldehyde solution in phosphate-buffered saline (PBS) at pH 7.4.
To obtain photograph D indicated above, the process was performed as follows: after treating the cells, the culture medium is removed and the cells are washed with PBS at pH 7.4. The cells are incubated for 10 minutes with 1 μM solutions of monodansyl cadaverine (MDC). They are then rinsed thoroughly with PBS solution at 4° C. One drop of “Vectashield” solution (Vector Laboratories, CA) is added before mounting between microscope slide and cover slip: the cells are then observed rapidly under the microscope and photographed.
The A549 cells treated as indicated above with the compound according to example 9 were also examined by electron microscopy. To examine these A549 cells by electron microscopy, they are fixed using a solution of PBS containing 3% glutaraldehyde, taken up in resin (EPON) and finally cut into thin slices using an ultra-microtome. These slices are then placed on 200-mesh copper grilles and examined by electron microscopy. […] In this FIG. 11, the letters used have the following meanings: N=nucleus; C=cytoplasm; M=mitochondria; Vi=intracytoplasmic vesicles; Ve=extracellular vesicles; MLB=multilamellar body.

U-937 cells = test: Production of IL-12p70 and IL-10 by the dendritic cells (ELISA); type: cell-based, human
Experimental: The culture supernatants are frozen at a temperature of −80° C. until the time of testing for the presence of cytokines. The presence of IL-12p70 and IL-10 is measured using ELISA kits obtained from “Endogen” (Woburn, Mass., USA).
This phenomenon continues for the two weeks of treatment.

U937 cells = test: Induction of vacuole production in the U937 tumoral cell line; type: cell-based, human; details: 10 nM, 24 hours
Experimental: U937 cells were treated with 10 nM of the compound according to example 9 for 24 hours. The treatment methods are those described in detail in example 55.

TS/A (H-2^d) cells = test: Cytotoxicity on TS/A mouse mammary adenocarcinoma cells in culture; type: cell-based
Experimental: The mouse tumoral line TS/A(H-2^d) is a cell line of a spontaneous mammary adenocarcinoma of syngenic mice of BALB/c mice. They are cultured in mycoplasm-free controlled RPMI 1640 medium supplemented with endotoxin-free controlled fetal calf serum (Girco-Brio, 2 mM of glutamine, 100 U/ml of penicillin, 50 μg/ml of streptomycin, essential amino acids and sodium pyruvate.
The cytotoxicity appears for doses of 50 μM.

[3] = tested on: C57BL/6 mouse spleen monocytes; test: Dendritogenesis on C57BL/6 mouse spleen monocytes; type: cell-based; details: dose of 1 nM, 36 hours after the start of action
Experimental: 1) On C57BL/6 Mouse Spleen Monocytes
5-week-old mice are sacrificed by cervical dislocation. They are then dissected. The spleens are removed under sterile conditions and then placed in a cold solution (4° C.) containing serum-free culture medium supplemented with antibiotics (streptomycin and penicillin). The spleens are ground in a sterile fume cupboard and then filtered through a 100 μm filter. The eluate is recovered and then centrifuged at 1000 rpm for 5 minutes at 4° C. The cell pellet is resuspended in phosphate-buffered saline (PBS) solution containing […], the purpose of which is to lyze the red blood cells. The suspension is centrifuged at 1000 rpm and the cells are then resuspended in PBS. The washing operation is performed twice. The final resuspension is performed in whole culture medium, and the cells are counted and distributed into six-well dishes at a density of 40 000 cells/ml. Four hours later, the adhering cells are washed vigorously with PBS in order to remove the cells that might remain attached to the adhering cells or to the culture dish.
The conversion was obtained with a dose of 1 nM, the photograph having been taken 36 hours after the start of action of the product. The test product is that of example 9. The appearance of cellular extensions is observed, which is one of the main characteristics of activated dendritic cells.

[4] = tested on: TS/A tumors implanted onto BALB/c mice; test: Growth tests on tumors implanted onto BALB/c mice; type: in vivo; details: for tumor growth relative to the control mice: intradermal in the region of the tumor
Experimental: The tumors are implanted in the following manner: 1×10^6 TS/A cells are inoculated by intradermal injection into the right side of the abdomen of 5-6-week-old BALB/c mice (Janvier breeding station, Le Genest Saint Isle).
The test molecule is the one corresponding to example 9; it is injected on the third day intradermally in the region of the tumor; the result is shown in FIG. 7.
The same experiment as that described above was repeated, changing the area of injection of the molecule corresponding to example 9; the injection is performed on the third day after implantation of the tumor, intradermally into the controlateral position relative to said implantation. […] This illustrates the efficacy of the treatment for an administration of the test compound remote from the tumor. The results obtained are represented by the curves in FIG. 17.

A549 cells [5] = test: Actin and tubulin skeleton on treated A549 cells (fluorescence microscopy); type: cell-based, human
Experimental: A549 cells were treated with the compound of example 9 according to the protocol described in detail in example 55; they are inoculated onto glass slides placed at the bottom of six-well culture dishes (NUNC) at a density of 50 000 cells per well in a nutrient medium of “RPMI 1640” type sold by the company “Gibco BRL”, supplemented with 10% fetal calf serum. The cells are then fixed with 3% paraformaldehyde solution and are permeabilized with a detergent solution containing 0.1% “Triton-X-100” in PBS. The actin skeleton of the treated cells was observed by labeling the cells with phalloidin-FITC.
In this case, the A549 cells are labeled with an anti-γ-tubulin antibody and developed with an anti-IgG-FITC antibody.

## CC(C)CCC[C@@H](C)[C@H]1CC[C@H]2[C@@H]3C[C@@H](NCCc4c[nH]cn4)[C@@]4(O)C[C@@H](O)CC[C@]4(C)[C@H]3CC[C@]12C [Example 9, cholestane-3β,5α-diol-6β-N-[2-ethylamino(1H-imidazol-4-yl)]]
[1]; after treatment for 5 days
  formation of rosettes (aggregate of entangled cells): formation of a large number of rosettes
  size of the dendrites: up to 100 μm
[1]; treatment for 2 days, after 10 ng/ml PMA
  induction of differentiation of the U-937 cells into dendritic cells: appearance of dendritic cells
A549 cells [2]; 100 nM, 12 hours
  induction of vacuole production in A549 cells: massive production of cytoplasmic vacuoles
A549 cells [2]; A549 cells
  dose dependence of the vacuole effect: dose-dependent
  time after the treatment at which the vacuole effect appears: six
  time after the treatment at which the vacuole effect reaches a maximum: 12 h
A549 cells [2]; FIG. 11.2
  electron microscopy of treated A549 cells: numerous vacuoles and mitochondria are also observed in the cytoplasm
A549 cells [2]; growth medium replaced with fresh medium
  reversibility of the vacuole effect: reversible
U-937 cells; from 36 hours after the start of the treatment, continues for the two weeks of treatment
  production of the p70 subunit of IL-12: stimulates the production of the p70 subunit of IL-12
U-937 cells; treatments extending over a period of two weeks
  transcription/production of IL-10: does not stimulate the transcription of IL-10
U937 cells
  induction of vacuole production in U937 cells (electron microscopy): numerous intracytoplasmic vacuoles have appeared
TS/A (H-2^d) cells; doses of 5 nM and 1 μM, irrespective of the incubation time
  toxicity on TS/A cells: no toxicity is observed
TS/A (H-2^d) cells; in vitro
  dose at which cytotoxicity on TS/A appears: 50 µM
[3]
  morphological changes on the mouse monocytes, conversion into dendritic cells: conversion resulting in dendritic cells
[4]; 8.5 ng/g of mouse, third day
  tumor growth relative to the control mice: slowing-down effect
[4]; 1.7 μg/g of mouse, third day
  tumor growth relative to the control mice: no tumor is detectable
[4]; 1.7 μg/g of mouse, intradermal, controlateral position, third day
  tumor growth relative to the control mice, administration remote from the tumor: slowing-down of the tumoral growth
[4]; 1.7 μg/g, whether or not a tumor has been implanted
  peripheral lymphoid system, activation of the immune system: hyperplasia of the peripheral lymphoid system is observed
[4]; intradermal injection
  necrosis in the area of injection (anatomopathology): no trace of necrosis is observable
A549 cells [5]; FIG. 12 photograph 2
  actin skeleton of treated A549 cells (phalloidin-FITC): appearance of refringent vesicles, which are surrounded by actin
A549 cells [5]; FIG. 13 photograph 2
  tubulin skeleton of treated A549 cells (anti-γ-tubulin antibody): presence of intracytoplasmic vacuoles, which are not surrounded with γ-tubulin
